Experimental data published in ChEMBL document CHEMBL1134111, “Nucleoside analogues as highly potent and selective inhibitors of herpes simplex virus thymidine kinase” (Bioorg Med Chem Lett, 2001).

Legend:
Thymidine kinase [1] = target: T1, Thymidine kinase (Human herpesvirus 1 (strain SC16) (HHV-1) (Human herpes simplex virus1), UniProt P06479); assay: Inhibitory activity against HSV-1 Thymidine Kinase (HSV-1 TK)
T1 sequence (P06479 whole entry): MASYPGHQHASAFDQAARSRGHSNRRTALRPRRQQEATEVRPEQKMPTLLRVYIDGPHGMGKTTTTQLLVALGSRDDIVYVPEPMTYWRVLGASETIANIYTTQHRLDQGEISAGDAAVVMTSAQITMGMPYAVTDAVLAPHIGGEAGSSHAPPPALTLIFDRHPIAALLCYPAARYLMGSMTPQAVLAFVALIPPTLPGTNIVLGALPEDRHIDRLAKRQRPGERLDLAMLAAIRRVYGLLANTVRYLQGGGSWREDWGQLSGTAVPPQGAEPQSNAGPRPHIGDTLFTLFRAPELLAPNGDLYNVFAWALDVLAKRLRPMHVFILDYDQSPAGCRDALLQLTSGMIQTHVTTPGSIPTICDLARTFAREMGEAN

Thymidine kinase [2] = target: T2, Thymidine kinase (Human herpesvirus 2, UniProt Q6L709); assay: Inhibitory activity against HSV-2 Thymidine Kinase (HSV-2 TK)
T2 sequence (Q6L709 whole entry): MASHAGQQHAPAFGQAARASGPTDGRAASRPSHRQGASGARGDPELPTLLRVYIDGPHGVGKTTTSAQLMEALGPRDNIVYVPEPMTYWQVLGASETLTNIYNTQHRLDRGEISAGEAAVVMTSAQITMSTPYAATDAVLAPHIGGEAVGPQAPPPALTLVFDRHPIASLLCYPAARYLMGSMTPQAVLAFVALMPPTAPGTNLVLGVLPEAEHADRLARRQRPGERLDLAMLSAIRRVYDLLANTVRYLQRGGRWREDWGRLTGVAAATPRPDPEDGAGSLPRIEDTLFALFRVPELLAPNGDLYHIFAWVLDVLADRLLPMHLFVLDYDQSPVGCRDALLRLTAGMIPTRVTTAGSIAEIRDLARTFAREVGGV

| Compound | IC50 (Thymidine kinase [1]) [nM] | IC50 (Thymidine kinase [2]) [nM] |
| --- | --- | --- |
| CCc1cn([C@@H]2O[C@H](CNC(=O)C3c4ccccc4Sc4ccccc43)[C@@H](O)[C@@H]2F)c(=O)[nH]c1=O | 8.5 | 0.7 |
| CCc1cn([C@@H]2O[C@H](CNC(=O)C3c4ccccc4C(C)(C)c4ccccc43)[C@@H](O)[C@@H]2F)c(=O)[nH]c1=O | 1.5 | 0.28 |
| CCc1cn([C@@H]2O[C@H](CNC(=O)C3c4ccccc4Oc4c(-c5ccccc5)cccc43)[C@@H](O)[C@@H]2F)c(=O)[nH]c1=O (some centres undefined) | 0.66 | 0.14 |
| CCc1cn([C@@H]2O[C@H](CNC(=O)C3c4ccccc4Oc4c(C)cccc43)[C@@H](O)[C@@H]2F)c(=O)[nH]c1=O (some centres undefined) | 1.6 | 0.19 |
| CCc1cn([C@@H]2O[C@H](CNC(=O)[C@H](C)Oc3cc(OC)c(Cl)cc3Cl)[C@@H](O)[C@@H]2F)c(=O)[nH]c1=O | 1.8 | 0.19 |
| CCc1cn([C@@H]2O[C@H](CNC(=O)C3c4ccccc4S(=O)(=O)c4c(Cl)cccc43)[C@@H](O)[C@@H]2F)c(=O)[nH]c1=O (some centres undefined) | 0.27 | 0.09 |
| CCc1cn([C@@H]2O[C@H](CNC(=O)C3c4cccc(C)c4Oc4c(C)cccc43)[C@@H](O)[C@@H]2F)c(=O)[nH]c1=O | 2.2 | 0.43 |
| CCc1cn([C@@H]2O[C@H](CNC(=O)C3c4ccccc4Oc4ccccc43)[C@@H](O)[C@@H]2F)c(=O)[nH]c1=O | 2.1 | 0.11 |
| CCc1cn([C@H]2C[C@H](O)[C@@H](CNC(=O)Cc3ccccc3)O2)c(=O)[nH]c1=O | 1000 | 300 |
| CCc1cn([C@H]2C[C@H](O)[C@@H](CNC(=O)C3c4ccccc4Sc4ccccc43)O2)c(=O)[nH]c1=O | 11.5 | 1.4 |
| CCc1cn([C@H]2C[C@H](O)[C@@H](CNC(=O)Cc3ccccc3OC)O2)c(=O)[nH]c1=O | 300 | 70 |
| CCc1cn([C@@H]2O[C@H](CNC(=O)C3c4ccccc4C(C(F)(F)F)(C(F)(F)F)c4ccccc43)[C@@H](O)[C@@H]2F)c(=O)[nH]c1=O | 0.19 | 0.11 |
| CCc1cn([C@H]2C[C@H](O)[C@@H](CNC(=O)C3c4ccccc4Oc4ccccc43)O2)c(=O)[nH]c1=O | 2.9 | 0.13 |
| CCc1cn([C@H]2C[C@H](O)[C@@H](CNC(=O)Cc3ccccc3Cl)O2)c(=O)[nH]c1=O | 100 | 30 |
| CCc1cn([C@H]2C[C@H](O)[C@@H](CNC(=O)Cc3ccccc3C(F)(F)F)O2)c(=O)[nH]c1=O | 200 | 90 |
| CCc1cn([C@H]2C[C@H](O)[C@@H](CNC(=O)Cc3ccccc3C)O2)c(=O)[nH]c1=O | 200 | 60 |

| Compound | IC50 (Thymidine kinase [1]) [nM] | IC50 (Thymidine kinase [2]) [nM] |
| --- | --- | --- |
| CCc1cn([C@H]2C[C@H](O)[C@@H](CNC(=O)C3c4ccccc4-c4ccccc43)O2)c(=O)[nH]c1=O | 28 | 5.2 |
| CCc1cn([C@H]2C[C@H](O)[C@@H](CNC(=O)Cc3ccccc3F)O2)c(=O)[nH]c1=O | 700 | 140 |
| CCc1cn([C@@H]2O[C@H](CNC(=O)C3c4ccccc4Oc4c3cccc4C(F)(F)F)[C@@H](O)[C@@H]2F)c(=O)[nH]c1=O (some centres undefined) | 1 | 0.14 |
| CCc1cn([C@@H]2O[C@H](CNC(=O)C3c4ccccc4Oc4c(OC)cccc43)[C@@H](O)[C@@H]2F)c(=O)[nH]c1=O (some centres undefined) | 1.7 | 0.21 |
| CCc1cn([C@H]2C[C@H](O)[C@@H](CNC(=O)C3c4ccccc4N(C)c4ccccc43)O2)c(=O)[nH]c1=O | 23 | 2.6 |
| CCc1cn([C@H]2C[C@H](O)[C@@H](CNC(=O)Cc3c(Cl)cccc3Cl)O2)c(=O)[nH]c1=O | 1 | 3.3 |
| CCc1cn([C@H]2C[C@H](O)[C@@H](CNC(=O)C3c4ccccc4Cc4ccccc43)O2)c(=O)[nH]c1=O | 7 | 1.2 |
| CCc1cn([C@H]2C[C@H](O)[C@@H](CNC(=O)Cc3c(C)cccc3C)O2)c(=O)[nH]c1=O | 40 | 8.4 |
| CCc1cn([C@@H]2O[C@H](CNC(=O)C3c4ccccc4Sc4c(Cl)cccc43)[C@@H](O)[C@@H]2F)c(=O)[nH]c1=O (some centres undefined) | 1.5 | 0.21 |
| CCc1cn([C@H]2C[C@H](O)[C@@H](CNC(=O)Cc3ccccc3-c3ccccc3)O2)c(=O)[nH]c1=O | 240 | 90 |
| CCc1cn([C@H]2C[C@H](O)[C@@H](CNC(=O)c3c4ccccc4cc4ccccc34)O2)c(=O)[nH]c1=O | 1650 | 420 |
| CCc1cn([C@@H]2O[C@H](CNC(=O)C3c4ccccc4Oc4c(Cl)cccc43)[C@@H](O)[C@@H]2F)c(=O)[nH]c1=O (some centres undefined) | 0.85 | 0.14 |
| CCc1cn([C@@H]2O[C@H](CNC(=O)C3c4ccccc4S(=O)(=O)c4ccccc43)[C@@H](O)[C@@H]2F)c(=O)[nH]c1=O | 0.93 | 0.11 |
| CCc1cn([C@H]2C[C@H](O)[C@@H](CNC(=O)C3c4ccccc4S(=O)(=O)c4ccccc43)O2)c(=O)[nH]c1=O | 0.95 | 0.13 |
| CCc1cn([C@@H]2O[C@H](CNC(=O)C3c4cccc(Cl)c4Oc4c(Cl)cccc43)[C@@H](O)[C@@H]2F)c(=O)[nH]c1=O | 0.3 | 0.1 |
| CCc1cn([C@H]2C[C@H](O)[C@@H](CNC(=O)C3c4ccccc4CCc4ccccc43)O2)c(=O)[nH]c1=O | 260 | 44 |
